According to patent US9682993B2, “Anticancer compounds” (ST. JUDE CHILDREN'S RESEARCH HOSPITAL, priority 2012, dated 2017):

Key:
Assay type in all cases: cell-based
WiDr = experiment: Drug combination assay, WiDr; conditions: inhibitor + compound 19
Method: (§1) Preliminary cytotoxic screenings for each drug used in drug combination assays were performed to determine their cytotoxic dose range. […] Eight concentrations were established by 1:3 serial dilutions of the single drugs and their combinations with the splicing modulators. All drug concentrations were evaluated in triplicate in 96-well cell culture plates. Assays of individual drugs and drug combinations were run on the same tissue culture plate. Cell viability was determined using the CellTiter-Glo reagent. Drug interactions, in terms of synergism, additive effect, or antagonism, were based on the drugs' Combination Index (CI) (Chou et al., Adv. Enzyme Regul. 1984, 22, 27).
(§2) Luminescence data obtained from the cell viability determinations were formatted per the requirements of the analytical software (viability data range: >0 and <1). The formatted data were analyzed with the software CalcuSyn 2.1 (Biosoft, Cambridge, UK), which provides quantitative CI values for the drug interaction analyses (see ranges in Supplementary Table S2). […] Therefore, in these two cases the drug interaction was evaluated by comparing the IC50 value of Sudemycin with that of the IC50 values resulting from the serial dilutions of the splicing modulator combined with a constant dose of the non-toxic drug.

SK-MEL-2 = experiment: Drug combination assay, SK-MEL-2
Method: as §1, with “reagent.” for “reagent. Drug interactions, in terms of synergism, additive effect, or antagonism, were based on the drugs' Combination Index (CI) (Chou et al., Adv. Enzyme Regul. 1984, 22, 27).”
(§3) Luminescence data obtained from the cell viability determinations were formatted per the requirements of the analytical software (viability data range: >0 and <1). The formatted data were analyzed with the software CalcuSyn 2.1 (Biosoft, Cambridge, UK), which provides quantitative CI values for the drug interaction analyses (see ranges in Supplementary Table S2).

PC-3 = experiment: Drug combination assay, PC-3; conditions: inhibitor + compound 19
Method: as §1, §2

Sk-N-AS = experiment: Drug combination assay, Sk-N-AS neuroblastoma; conditions: Sk-N-AS; inhibitor + compound 19
Method: as §1, with “reagent.” for “reagent. Drug interactions, in terms of synergism, additive effect, or antagonism, were based on the drugs' Combination Index (CI) (Chou et al., Adv. Enzyme Regul. 1984, 22, 27).”
as §3

JeKo-1 = experiment: Drug combination assay, JeKo-1; conditions: inhibitor + compound 19
Method: as §1, §2

HeLa = experiment: Drug combination assay, HeLa; conditions: HeLa; inhibitor + compound 19
Method: as §1, §2

cell lines investigated = experiment: Drug combination assays, cell line not stated
Method: as §1, with “reagent.” for “reagent. Drug interactions, in terms of synergism, additive effect, or antagonism, were based on the drugs' Combination Index (CI) (Chou et al., Adv. Enzyme Regul. 1984, 22, 27).”
as §3

Structure (SMILES): CO[C@H]1C[C@@H]2CC[C@@H](C)[C@@](O)(O2)C(=O)C(=O)N2CCCC[C@H]2C(=O)O[C@H]([C@H](C)C[C@@H]2CC[C@@H](OC(=O)C(C)(CO)CO)[C@H](OC)C2)CC(=O)[C@H](C)/C=C(\C)[C@@H](O)[C@@H](OC)C(=O)[C@H](C)C[C@H](C)/C=C/C=C/C=C/1C [Temsirolimus]
- CI of 19 + inhibitor (WiDr): 0.44
- CI in SK-MEL-2 with compound 19 (SK-MEL-2; Combination Index at ED50, CalcuSyn 2.1, listed drug + compound 19): 0.68
- CI of 19 + inhibitor (SK-MEL-2; SK-MEL-2, inhibitor + compound 19): 0.68
- Interaction Type (SK-MEL-2; listed drug combined with compound 19, Ineffective = drug IC50 much higher than 1 μM): Synergism (0.3-0.7)
- CI of 19 + inhibitor (PC-3): 0.57
- CI of 19 + inhibitor (Sk-N-AS): 0.58
- CI of 19 + inhibitor (JeKo-1): 0.37
- CI of 19 + inhibitor (HeLa): 0.35
- drug interaction with compound 20 (cell lines investigated): demonstrated synergy
